Assay results published in patent publication US12673945B2, “3-((8-((1H-pyrazol-4-yl)amino)imidazo[1,2-a]pyridin-3-yl)ethinyl)-n-phenylbenzamide derivative, method for preparing same, and pharmaceutical composition containing same as active ingredient for prevention or treatment of cancer” (DAEGU-GYEONGBUK MEDICAL INNOVATION FOUNDATION, priority 2020, dated 2026).

What was measured:
Format in all cases: cell-based
T315I-Bcr-Abl (Ba/F3) = test: Ba/F3 cell proliferation inhibition; conditions: BaF3; 72 hours, Cell Counting Kit-8
Method in brief: (§1)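 GI50 derived from CCK-8 absorbance at 450 nm (2 h development), expressed relative to DMSO vehicle. Cells (parental or T315I-Bcr-Abl Ba/F3, 1×10^4/well) received nine threefold-diluted concentrations, final 0 to 10 μM, for 72 h at 37 °C.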

Parental (Ba/F3) = test: Ba/F3 cell proliferation inhibition; conditions: BaF3; 72 hours, Cell Counting Kit-8
Method in brief: as §1

T315I-TCCS cells = test: human CML cell proliferation inhibition; conditions: 72 hours, Cell Counting Kit-8
Method in brief: (§2)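 Read-out: CCK-8, A450 after 2 h, expressed as % of vehicle-treated cells; GI50 fitted from 9-point curves. Compound exposure 72 h at 37 °C, final 0–10 μM, 5-fold dilutions. Bcr-Abl lines TCCS/KOPM28; T315I-Bcr-Abl lines T315I-TCCS/T315I-KOPM28.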

T315I-KOPM28 cells = test: human CML cell proliferation inhibition; conditions: 72 hours, Cell Counting Kit-8
Method in brief: as §2

TCCS cells = test: human CML cell proliferation inhibition; conditions: 72 hours, Cell Counting Kit-8
Method in brief: as §2

KOPM28 cells = test: human CML cell proliferation inhibition; conditions: 72 hours, Cell Counting Kit-8
Method in brief: as §2

Row | SMILES | GI50 (T315I-Bcr-Abl (Ba/F3)) [nM] | GI50 (Parental (Ba/F3)) [nM] | GI50 (T315I-TCCS cells) [nM] | GI50 (T315I-KOPM28 cells) [nM] | GI50 (TCCS cells) [nM] | GI50 (KOPM28 cells) [nM]
1 | Cc1cc(F)c(C(=O)Nc2cc(N3CCN(C)CC3)cc(C(C)(C)C#N)c2)cc1C#Cc1cnc2c(Nc3cn[nH]c3)cccn12 [Example 80, 5-((8-((1H-pyrazol-4-yl)amino)imidazo[1,2-a]pyridin-3-yl)ethynyl)-N-(3-(2-cyanopropan-2-yl)-5-(4-methylpiperazin-1-yl)phenyl)-2-fluoro-4-methylbenzamide] | 50 to 500 | > 5000 | 100 | > 100 | < 10 | < 10
2 | Cc1cc(F)c(C(=O)Nc2cc(N(C)CCN(C)C)cc(C(C)(C)C#N)c2)cc1C#Cc1cnc2c(Nc3cn[nH]c3)cccn12 [Example 81, 5-((8-((1H-pyrazol-4-yl)amino)imidazo[1,2-a]pyridin-3-yl)ethynyl)-N-(3-(2-cyanopropan-2-yl)-5-((2-(dimethylamino)ethyl)(methyl)amino)phenyl)-2-fluoro-4-methylbenzamide] | 50 to 500 | 500 to 5000 | 100 | > 100 | < 10 | < 10
3 | Cc1cc(F)c(C(=O)Nc2cc(N3CCN(C)C(=O)C3)cc(C(C)(C)C#N)c2)cc1C#Cc1cnc2c(Nc3cn[nH]c3)cccn12 [Example 82, 5-((8-((1H-pyrazol-4-yl)amino)imidazo[1,2-a]pyridin-3-yl)ethynyl)-N-(3-(2-cyanopropan-2-yl)-5-(4-methyl-3-oxopiperazin-1-yl)phenyl)-2-fluoro-4-methylbenzamide] | 50 to 500 | 500 to 5000 | 100 | > 100 | < 10 | < 10
4 | Cc1cc(F)c(C(=O)Nc2cc(Oc3ccncc3)cc(C(C)(C)C#N)c2)cc1C#Cc1cnc2c(Nc3cn[nH]c3)cccn12 [Example 83, 5-((8-((1H-pyrazol-4-yl)amino)imidazo[1,2-a]pyridin-3-yl)ethynyl)-N-(3-(2-cyanopropan-2-yl)-5-(pyridin-4-yloxy)phenyl)-2-fluoro-4-methylbenzamide] | < 50 | 500 to 5000 | 100 | 100 | < 10 | < 10
5 | Cc1cc(F)c(C(=O)Nc2cc(CN3CCN(C)CC3)cc(C(C)(C)C#N)c2)cc1C#Cc1cnc2c(Nc3cn[nH]c3)cccn12 [Example 84, 5-((8-((1H-pyrazol-4-yl)amino)imidazo[1,2-a]pyridin-3-yl)ethynyl)-N-(3-(2-cyanopropan-2-yl)-5-((4-methylpiperazin-1-yl)methyl)phenyl)-2-fluoro-4-methylbenzamide] | 50 to 500 | 500 to 5000 | 100 | > 100 | < 10 | < 10
6 | Cc1cc(F)c(C(=O)Nc2cc(CN3CCC(N(C)C)C3)cc(C(C)(C)C#N)c2)cc1C#Cc1cnc2c(Nc3cn[nH]c3)cccn12 (stereo not drawn) [Example 85, 5-((8-((1H-pyrazol-4-yl)amino)imidazo[1,2-a]pyridin-3-yl)ethynyl)-N-(3-(2-cyanopropan-2-yl)-5-((3-(dimethylamino)pyrrolidin-1-yl)methyl)phenyl)-2-fluoro-4-methylbenzamide] | 50 to 500 | 500 to 5000 | 100 | > 100 | < 10 | < 10
7 | Cc1cc(F)c(C(=O)Nc2cc(CN3CCN(CCO)CC3)cc(C(C)(C)C#N)c2)cc1C#Cc1cnc2c(Nc3cn[nH]c3)cccn12 [Example 86, 5-((8-((1H-pyrazol-4-yl)amino)imidazo[1,2-a]pyridin-3-yl)ethynyl)-N-(3-(2-cyanopropan-2-yl)-5-((4-(2-hydroxyethyl)piperazin-1-yl)methyl)phenyl)-2-fluoro-4-methylbenzamide] | < 50 | 500 to 5000 | 100 | 100 | < 10 | < 10
8 | Cc1cc(F)c(C(=O)Nc2cc(CN3CCN(S(C)(=O)=O)CC3)cc(C(C)(C)C#N)c2)cc1C#Cc1cnc2c(Nc3cn[nH]c3)cccn12 [Example 87, 5-((8-((1H-pyrazol-4-yl)amino)imidazo[1,2-a]pyridin-3-yl)ethynyl)-N-(3-(2-cyanopropan-2-yl)-5-((4-(methylsulfonyl)piperazin-1-yl)methyl)phenyl)-2-fluoro-4-methylbenzamide] | 50 to 500 | > 5000 | 100 | > 100 | < 10 | < 10
9 | Cc1cc(F)c(C(=O)Nc2cc(CN3CCN(C)C(=O)C3)cc(C(C)(C)C#N)c2)cc1C#Cc1cnc2c(Nc3cn[nH]c3)cccn12 [Example 88, 5-((8-((1H-pyrazol-4-yl)amino)imidazo[1,2-a]pyridin-3-yl)ethynyl)-N-(3-(2-cyanopropan-2-yl)-5-((4-methyl-3-oxopiperazin-1-yl)methyl)phenyl)-2-fluoro-4-methylbenzamide] | 50 to 500 | 500 to 5000 | > 100 | > 100 | < 10 | < 10
10 | Cc1cc(F)c(C(=O)Nc2cc(Cn3cncn3)cc(C(C)(C)C#N)c2)cc1C#Cc1cnc2c(Nc3cn[nH]c3)cccn12 [Example 89, N-(3-((1H-1,2,4-triazol-1-yl)methyl)-5-(2-cyanopropan-2-yl)phenyl)-5-((8-((1H-pyrazol-4-yl)amino)imidazo[1,2-a]pyridin-3-yl)ethynyl)-2-fluoro-4-methylbenzamide] | < 50 | > 5000 | 100 | 100 | < 10 | < 10
11 | Cc1cc(F)c(C(=O)Nc2ccc(CN3CCN(C)CC3)c(C(C)(C)C#N)c2)cc1C#Cc1cnc2c(Nc3cn[nH]c3)cccn12 [Example 90, 5-((8-((1H-pyrazol-4-yl)amino)imidazo[1,2-a]pyridin-3-yl)ethynyl)-N-(3-(2-cyanopropan-2-yl)-4-((4-methylpiperazin-1-yl)methyl)phenyl)-2-fluoro-4-methylbenzamide] | < 50 | 50 to 500 | 100 | 100 | < 10 | < 10
12 | Cc1cc(F)c(C(=O)Nc2ccc(CN3CCC(N(C)C)C3)c(C(C)(C)C#N)c2)cc1C#Cc1cnc2c(Nc3cn[nH]c3)cccn12 (stereo not drawn) [Example 91, 5-((8-((1H-pyrazol-4-yl)amino)imidazo[1,2-a]pyridin-3-yl)ethynyl)-N-(3-(2-cyanopropan-2-yl)-4-((3-(dimethylamino)pyrrolidin-1-yl)methyl)phenyl)-2-fluoro-4-methylbenzamide] | 50 to 500 | 500 to 5000 | > 100 | > 100 | < 10 | < 10
13 | Cc1cc(F)c(C(=O)Nc2ccc(CN3CCN(CCO)CC3)c(C(C)(C)C#N)c2)cc1C#Cc1cnc2c(Nc3cn[nH]c3)cccn12 [Example 92, 5-((8-((1H-pyrazol-4-yl)amino)imidazo[1,2-a]pyridin-3-yl)ethynyl)-N-(3-(2-cyanopropan-2-yl)-4-((4-(2-hydroxyethyl)piperazin-1-yl)methyl)phenyl)-2-fluoro-4-methylbenzamide] | < 50 | 500 to 5000 | 100 | 100 | < 10 | < 10
14 | Cc1cc(F)c(C(=O)Nc2ccc(CN3CCN(C)C(=O)C3)c(C(C)(C)C#N)c2)cc1C#Cc1cnc2c(Nc3cn[nH]c3)cccn12 [Example 93, 5-((8-((1H-pyrazol-4-yl)amino)imidazo[1,2-a]pyridin-3-yl)ethynyl)-N-(3-(2-cyanopropan-2-yl)-4-((4-methyl-3-oxopiperazin-1-yl)methyl)phenyl)-2-fluoro-4-methylbenzamide] | 50 to 500 | 500 to 5000 | > 100 | > 100 | < 10 | < 10
15 | Cc1cc(F)c(C(=O)Nc2ccc(CN3CCN(S(C)(=O)=O)CC3)c(C(C)(C)C#N)c2)cc1C#Cc1cnc2c(Nc3cn[nH]c3)cccn12 [Example 94, 5-((8-((1H-pyrazol-4-yl)amino)imidazo[1,2-a]pyridin-3-yl)ethynyl)-N-(3-(2-cyanopropan-2-yl)-4-((4-(methylsulfonyl)piperazin-1-yl)methyl)phenyl)-2-fluoro-4-methylbenzamide] | 500 to 5000 | > 5000 | > 100 | > 100 | < 10 | < 10
16 | Cc1cn(-c2cc(NC(=O)c3cc(C#Cc4cnc5c(Nc6cn[nH]c6)cccn45)c(C)cc3F)cc(C(F)(F)F)c2)cn1 [Example 95, 5-((8-((1H-pyrazol-4-yl)amino)imidazo[1,2-a]pyridin-3-yl)ethynyl)-2-fluoro-4-methyl-N-(3-(4-methyl-1H-imidazol-1-yl)-5-(trifluoromethyl)phenyl)benzamide] | < 50 | > 5000 | 100 | 100 | < 10 | < 10
17 | Cc1cc(F)c(C(=O)Nc2cc(-c3cnn(C)c3)cc(C(F)(F)F)c2)cc1C#Cc1cnc2c(Nc3cn[nH]c3)cccn12 [Example 96, 5-((8-((1H-pyrazol-4-yl)amino)imidazo[1,2-a]pyridin-3-yl)ethynyl)-2-fluoro-4-methyl-N-(3-(1-methyl-1H-pyrazol-4-yl)-5-(trifluoromethyl)phenyl)benzamide] | 50 to 500 | > 5000 | > 100 | > 100 | 100 | < 10
